Measurements from US20200405868A1, “GEL-FORMING POLYPEPTIDES” (priority 2018, published 2020).
Where no end group is shown, it is not given here. The star is where a group is joined. Palmitoyl = CCCCCCCCCCCCCCCC(=O)*

Assay: Compound gel-forming ability in water (visual inspection, tube tapping assay, tilted tube assay);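 further: peptides mixed with de-ionized water at about 22-25 °C, judged after 20 min by eye plus tube tapping (10 taps, moves counted) and 90° tilt mobility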
Type: physicochemical
Details: for gel formation at 6% w/w: 6% w/w in water; for gel formation at 11% w/w: 11% w/w in water; for gel formation at 20% w/w: 20% w/w in water; for Physical property at 11% w/w: 11% w/w in aqueous solution, room temperature; for gel formation in aqueous solution, 6% / propensity to form gels, chimeric or mutated polypeptides, 6%: 6% w/w; for gel formation in aqueous solution, 11% / propensity to form gels, chimeric or mutated polypeptides, 11%: 11% w/w; for gel formation in aqueous solution, 20% / propensity to form gels, chimeric or mutated polypeptides, 20%: 20% w/w; for gel formation at 30% w/w: 30% w/w in water; for gel formation in aqueous solution, 30%: 30% w/w

With “Pal-RQSMNNFQGLRSFGCRFGTCTVQKLAHQIYQFTDKDKDNVAPRSKISPQGY-NH2 [SEQ ID NO:274]” the “gel formation at 6% w/w” value was “semisolid gel”, the “gel formation at 11% w/w” value was “semisolid gel” and the “gel formation at 20% w/w” value was “semisolid gel”. For the same substance, the “Physical property at 11% w/w” value (Table 1) was “SS (SS for semisolid gel)”, the “gel formation in aqueous solution, 6%” value (Table 3) was “SS (SS for semisolid gel)” and the “gel formation in aqueous solution, 11%” value (Table 3) was “SS (SS for semisolid gel)”. The “gel formation in aqueous solution, 20%” value (Table 3) was “SS (SS for semisolid gel)”, the “propensity to form gels, chimeric or mutated polypeptides, 6%” value (from here on “propensity to form gels … 6%”) (Table 5) was “SS (An ability to form semisolid gel is represented by an SS)” and the “propensity to form gels, chimeric or mutated polypeptides, 11%” value (“propensity to form gels … 11%” for short) (Table 5) was “SS (An ability to form semisolid gel is represented by an SS)”. For the same substance, the “propensity to form gels, chimeric or mutated polypeptides, 20%” value (from here on “propensity to form gels … 20%”) (Table 5) was “SS (An ability to form semisolid gel is represented by an SS)”.

With “Pal-SDAAVDTSSEITTKDLKEKKEVVEEAEN-NH2 [SEQ ID NO:268]” the “gel formation at 11% w/w” value was “semisolid gel”, the “gel formation in aqueous solution, 11%” value (Table 3) was “SS (SS for semisolid gel)” and the “propensity to form gels … 11%” value (Table 5) was “SS (An ability to form semisolid gel is represented by an SS)”.

With Pal-SSPHSY-NH2 [SEQ ID NO:119] the “Physical property at 11% w/w” value (Table 2) was “SS (SS for semisolid gel)”.

For “Pal-SSPHSY-miniPEG -SYS-Nle-EH-(D-Phe)-RWGKPV-NH2 [SEQ ID NO:223]”, the “gel formation in aqueous solution, 20%” value (Table 3) was “SS (SS for semisolid gel)”.

With “Pal-SSPHSY-miniPEG-(D-Ala)-(D-(β-naphthyl))-AAW-(D-Phe)-Lys-NH2 [SEQ ID NO:235]” the “gel formation at 3% w/w” value (3% w/w in water) was “semisolid gel”, the “gel formation at 6% w/w” value was “semisolid gel” and the “gel formation at 11% w/w” value was “semisolid gel”. For the same substance, the “gel formation in aqueous solution, 3%” value (Table 3, 3% w/w) was “SS (SS for semisolid gel)”, the “gel formation in aqueous solution, 6%” value (Table 3) was “SS (SS for semisolid gel)” and the “gel formation in aqueous solution, 11%” value (Table 3) was “SS (SS for semisolid gel)”. The “propensity to form gels, chimeric or mutated polypeptides, 3%” value (Table 5, 3% w/w) was “SS (An ability to form semisolid gel is represented by an SS)”, the “propensity to form gels … 6%” value (Table 5) was “SS (An ability to form semisolid gel is represented by an SS)” and the “propensity to form gels … 11%” value (Table 5) was “SS (An ability to form semisolid gel is represented by an SS)”.

In the case of “Pal-SSPHSY-miniPEG-(D-Arg)-Arg-Pro-Hyp-Gly-Thi-Ser-(D-Tic)-Oic-Arg [SEQ ID NO:233]”, the “gel formation at 30% w/w” value is reported as “semisolid gel”, the “gel formation in aqueous solution, 11%” value (Table 3) is reported as “AS/IS (AS/IS for aqueous solution or insoluble)” and the “gel formation in aqueous solution, 30%” value (Table 3) is reported as “SS (SS for semisolid gel)”.

In the case of “Pal-SSPHSY-miniPEG-EAYKAAEKAYAAKEAAKEAAKAKAEKKAAYAKAKAAKYEKKAKKAAAEYKKK ({Palmitoyl-Ser-Ser-Pro-H2N-Ser-Tyr-miniPEG}-EAYKAAEKAYAAKEAAKEAAKAKAEKKAAYAKAKAAKYEKKAKKAAAEYKKK) [SEQ ID NO:245]”, the “gel formation at 20% w/w” value is reported as “semisolid gel”, the “gel formation in aqueous solution, 11%” value (Table 3) is reported as “AS/IS (AS/IS for aqueous solution or insoluble)” and the “gel formation in aqueous solution, 20%” value (Table 3) is reported as “SS (SS for semisolid gel)”. For the same substance, the “propensity to form gels … 11%” value (Table 5) was “AS/IS” and the “propensity to form gels … 20%” value (Table 5) was “SS (An ability to form semisolid gel is represented by an SS)”.

For “Pal-SSPHSY-miniPEG-FLPLIGRVLSGIL-NH2 ({Palmitoyl-Ser-Ser-Pro-H2N-Ser-Tyr-miniPEG}-FLPLIGRVLSGIL-NH2) [SEQ ID NO:243]”, the “gel formation at 11% w/w” value was “semisolid gel”, the “gel formation in aqueous solution, 6%” value (Table 3) was “AS/IS (AS/IS for aqueous solution or insoluble)” and the “gel formation in aqueous solution, 11%” value (Table 3) was “SS (SS for semisolid gel)”.

With “Pal-SSPHSY-miniPEG-HGDGSFSDEMNTILDNLAARDFINWLIQTKITD-OH [SEQ ID NO:222]” the “gel formation at 6% w/w” value was “liquid gel”, the “gel formation at 11% w/w” value was “semisolid gel” and the “gel formation in aqueous solution, 11%” value (Table 3) was “SS (SS for semisolid gel)”. The “propensity to form gels … 11%” value (Table 5) was “SS (An ability to form semisolid gel is represented by an SS)”.

With “Pal-SSPHSY-miniPEG-ICVVQDWGHHRCT-NH2 [SEQ ID NO:244]” the “gel formation at 11% w/w” value was “semisolid gel”, the “gel formation in aqueous solution, 6%” value (Table 3) was “AS/IS (AS/IS for aqueous solution or insoluble)” and the “gel formation in aqueous solution, 11%” value (Table 3) was “SS (SS for semisolid gel)”. For the same substance, the “propensity to form gels … 6%” value (Table 5) was “AS/IS” and the “propensity to form gels … 11%” value (Table 5) was “SS (An ability to form semisolid gel is represented by an SS)”.

In the case of “Pal-SSPHSY-miniPEG-KCNTATCATQRLANFLVHSSNNFGPILPPTNVGSNTY-NH2 ({Palmitoyl-Ser-Ser-Pro-H2N-Ser-Tyr-miniPEG}-KCNTATCATQRLANFLVHSSNNFGPILPPTNVGSNTY-NH2; ends and bridges not checked) [SEQ ID NO:218]”, the “gel formation at 6% w/w” value is reported as “semisolid gel”, the “gel formation at 11% w/w” value is reported as “semisolid gel” and the “gel formation in aqueous solution, 6%” value (Table 3) is reported as “SS (SS for semisolid gel)”. For the same substance, the “gel formation in aqueous solution, 11%” value (Table 3) was “SS (SS for semisolid gel)”, the “propensity to form gels … 6%” value (Table 5) was “SS (An ability to form semisolid gel is represented by an SS)” and the “propensity to form gels … 11%” value (Table 5) was “SS (An ability to form semisolid gel is represented by an SS)”.

For “Pal-SSPHSY-miniPEG-PFRSVQ-NH2 [SEQ ID NO:242]”, the “gel formation at 6% w/w” value was “liquid gel”, the “gel formation at 11% w/w” value was “semisolid gel” and the “gel formation in aqueous solution, 11%” value (Table 3) was “SS (SS for semisolid gel)”. The “propensity to form gels … 11%” value (Table 5) was “SS (An ability to form semisolid gel is represented by an SS)”.

For “Pal-SSPHSY-miniPEG-RC-(D-Ala)-H-(D-Phe)-RWC-NH2. [SEQ ID NO:227]”, the “gel formation at 30% w/w” value was “form gel”, the “gel formation in aqueous solution, 11%” value (Table 3) was “AS/IS (AS/IS for aqueous solution or insoluble)” and the “gel formation in aqueous solution, 30%” value (Table 3) was “SS (SS for semisolid gel)”.

For “Pal-SSPHSY-miniPEG-RGD-NH2 [SEQ ID NO:247]”, the “gel formation at 11% w/w” value was “semisolid gel”, the “gel formation in aqueous solution, 11%” value (Table 3) was “SS (SS for semisolid gel)” and the “propensity to form gels … 11%” value (Table 5) was “SS (An ability to form semisolid gel is represented by an SS)”.

With “Pal-SSPHSY-miniPEG-SDAAVDTSSEITTKDLKEKKEVVEEAEN-NH2 ({Palmitoyl-Ser-Ser-Pro-H2N-Ser-Tyr-miniPEG}-SDAAVDTSSEITTKDLKEKKEVVEEAEN-NH2) [SEQ ID NO:239]” the “gel formation at 11% w/w” value was “does not form gel” and the “gel formation in aqueous solution, 11%” value (Table 3) was “AS/IS (AS/IS for aqueous solution or insoluble)”.

For “Pal-SSPHSY-miniPEG-SLRRSSCFGGRMDRIGAQSGLGCNSFRY-NH2 [SEQ ID NO:238]”, the “gel formation at 11% w/w” value was “semisolid gel”, the “gel formation at 20% w/w” value was “semisolid gel” and the “gel formation in aqueous solution, 11%” value (Table 3) was “SS (SS for semisolid gel)”. The “gel formation in aqueous solution, 20%” value (Table 3) was “SS (SS for semisolid gel)”, the “propensity to form gels … 11%” value (Table 5) was “SS (An ability to form semisolid gel is represented by an SS)” and the “propensity to form gels … 20%” value (Table 5) was “SS (An ability to form semisolid gel is represented by an SS)”.

With “Pal-SSPHSY-miniPEG-SYSMEHFRWGKPVGKKRRPVKVYP-OH [SEQ ID NO:225]” the “gel formation in aqueous solution, 11%” value (Table 3) was “AS/IS (AS/IS for aqueous solution or insoluble)” and the “gel formation in aqueous solution, 20%” value (Table 3) was “SS (SS for semisolid gel)”.

For “Pal-SSPHSY-miniPEG-VGVAPG-NH2 [SEQ ID NO:248]”, the “gel formation at 11% w/w” value was “liquid gel”, the “gel formation at 20% w/w” value was “semisolid gel” and the “gel formation in aqueous solution, 20%” value (Table 3) was “SS (SS for semisolid gel)”. For the same substance, the “propensity to form gels … 20%” value (Table 5) was “SS (An ability to form semisolid gel is represented by an SS)”.

With “Pal-SSPHSY-miniPEG-YADAIFTNSYRKVLGQLSARKLLQDIMSR-NH2 [SEQ ID NO:236]” the “gel formation in aqueous solution, 6%” value (Table 3) was “AS/IS (AS/IS for aqueous solution or insoluble)” and the “gel formation in aqueous solution, 11%” value (Table 3) was “AS/IS (AS/IS for aqueous solution or insoluble)”.

In the case of “Pal-SSPHSY-miniPEG-YIGSR-NH2 [SEQ ID NO:246]”, the “gel formation at 11% w/w” value is reported as “semisolid gel”, the “gel formation in aqueous solution, 6%” value (Table 3) is reported as “SS (SS for semisolid gel)” and the “gel formation in aqueous solution, 11%” value (Table 3) is reported as “SS (SS for semisolid gel)”. The “propensity to form gels … 6%” value (Table 5) was “SS (An ability to form semisolid gel is represented by an SS)” and the “propensity to form gels … 11%” value (Table 5) was “SS (An ability to form semisolid gel is represented by an SS)”.

In the case of “Pal-SSPHSY-miniPEG-YRSRKYSSVVY-NH2 ({Palmitoyl-Ser-Ser-Pro-H2N-Ser-Tyr-miniPEG}-YRSRKYSSVVY-NH2) [SEQ ID NO:249]”, the “gel formation at 11% w/w” value is reported as “semisolid gel”, the “gel formation in aqueous solution, 6%” value (Table 3) is reported as “AS/IS (AS/IS for aqueous solution or insoluble)” and the “gel formation in aqueous solution, 11%” value (Table 3) is reported as “SS (SS for semisolid gel)”. For the same substance, the “propensity to form gels … 6%” value (Table 5) was “AS/IS” and the “propensity to form gels … 11%” value (Table 5) was “SS (An ability to form semisolid gel is represented by an SS)”.

In the case of “Pal-VGSKAF-NH2 (Palmitoyl-VGSKAF-NH2; SMILES CCCCCCCCCCCCCCCC(=O)N[C@H](C(=O)NCC(=O)N[C@@H](CO)C(=O)N[C@@H](CCCCN)C(=O)N[C@@H](C)C(=O)N[C@@H](Cc1ccccc1)C(N)=O)C(C)C; UniProt P06881 114-119, looked up, fragment) [SEQ ID NO:132]”, the “Physical property at 11% w/w” value (Table 2) is reported as “AS/IS (AS/IS for aqueous solution or insoluble)”.

With Pal-VGSNTY-NH2 [SEQ ID NO:133] the “Physical property at 11% w/w” value (Table 2) was “AS/IS (AS/IS for aqueous solution or insoluble)”.

With “Pal-VQKLAHQIYQFTDKDVAPRSKISPQGY-NH2 (Palmitoyl-VQKLAHQIYQFTDKDVAPRSKISPQGY-NH2; SMILES CCCCCCCCCCCCCCCC(=O)N[C@H](C(=O)N[C@@H](CCC(N)=O)C(=O)N[C@@H](CCCCN)C(=O)N[C@@H](CC(C)C)C(=O)N[C@@H](C)C(=O)N[C@@H](Cc1c[nH]cn1)C(=O)N[C@@H](CCC(N)=O)C(=O)N[C@H](C(=O)N[C@@H](Cc1ccc(O)cc1)C(=O)N[C@@H](CCC(N)=O)C(=O)N[C@@H](Cc1ccccc1)C(=O)N[C@H](C(=O)N[C@@H](CC(=O)O)C(=O)N[C@@H](CCCCN)C(=O)N[C@@H](CC(=O)O)C(=O)N[C@H](C(=O)N[C@@H](C)C(=O)N1CCC[C@H]1C(=O)N[C@@H](CCCNC(=N)N)C(=O)N[C@@H](CO)C(=O)N[C@@H](CCCCN)C(=O)N[C@H](C(=O)N[C@@H](CO)C(=O)N1CCC[C@H]1C(=O)N[C@@H](CCC(N)=O)C(=O)NCC(=O)N[C@@H](Cc1ccc(O)cc1)C(N)=O)[C@@H](C)CC)C(C)C)[C@@H](C)O)[C@@H](C)CC)C(C)C) [SEQ ID NO:102]” the “Physical property at 11% w/w” value (Table 2) was “AS/IS (AS/IS for aqueous solution or insoluble)”.
